In brackets after ≈: the same amount, converted by molar mass. Like-named read-outs stand apart in the source and are kept apart here.
How the values were obtained:
Format in all cases: cell-based
A. baumannii ATCC 17978 = test: IHMA QC MIC
Description: (§1) The panel of Hungarian clinical isolates and controls measured following the same method as detailed above, and albeit measurements were carried out in 384-well microtiter plates (Corning Inc.).

E. coli ATCC 35218 = test: IHMA QC MIC; conditions: Escherichia coli, ATCC35218; read-out: MIC (QC, repeated tests)
Description: as §1

[1] = tested on: 100 A. baumannii strains (50 MDR, 50 non-MDR); test: MIC broth microdilution at IHMA Europe, panel of 100 strains; conditions: Acinetobacter baumannii, read-out: MIC

In the case of `CN(C)c1cc(NC(=O)CNC(C)(C)C)c(O)c2c1C[C@H]1C[C@H]3[C@H](N(C)C)C(O)=C(C(N)=O)C(=O)[C@@]3(O)C(O)=C1C2=O` [Tigecycline, tigecycline], the “MIC (QC, repeated tests)” value (A. baumannii ATCC 17978) is reported as 0.5 µg/mL (≈ 0.854 µM), the MIC (A. baumannii ATCC 17978; Acinetobacter baumannii, ATCC17978, read-out: MIC (QC, repeated tests)) is reported as 0.25 µg/mL (≈ 0.427 µM) and the MIC (E. coli ATCC 35218) is reported as 0.12 µg/mL (≈ 0.205 µM). The MIC ([1]; A. baumannii IHMA 1769393, Lithuania 2018, Non-MDR) was 0.25 µg/mL (≈ 0.427 µM), the MIC ([1]; A. baumannii IHMA 1769782, Israel 2018, MDR) was 4 µg/mL (≈ 6.83 µM) and the MIC ([1]; A. baumannii IHMA 1769910, Israel 2018, Non-MDR) was 2 µg/mL (≈ 3.41 µM). It also gave an MIC ([1]; A. baumannii IHMA 1790317, Czech Republic 2018, Non-MDR) of 0.06 µg/mL (≈ 0.102 µM), an MIC ([1]; A. baumannii IHMA 1790916, Romania 2018, Non-MDR) of 0.12 µg/mL (≈ 0.205 µM) and an MIC ([1]; A. baumannii IHMA 1791877, Israel 2018, MDR) of 2 µg/mL (≈ 3.41 µM). For the same molecule, the MIC ([1]; A. baumannii IHMA 1792961, Jordan 2018, MDR) was 2 µg/mL (≈ 3.41 µM), the MIC ([1]; A. baumannii IHMA 1795669, Tunisia 2018, Non-MDR) was 0.06 µg/mL (≈ 0.102 µM) and the MIC ([1]; A. baumannii IHMA 1814276, Lebanon 2018, MDR) was 4 µg/mL (≈ 6.83 µM). It also gave an MIC ([1]; A. baumannii IHMA 1815198, Kuwait 2018, MDR) of 4 µg/mL (≈ 6.83 µM), an MIC ([1]; A. baumannii IHMA 1815856, Israel 2018, MDR) of 2 µg/mL (≈ 3.41 µM) and an MIC ([1]; A. baumannii IHMA 1821468, South Africa 2018, Non-MDR) of 0.25 µg/mL (≈ 0.427 µM). For the same molecule, the MIC ([1]; A. baumannii IHMA 1829500, Georgia 2018, Non-MDR) was 0.5 µg/mL (≈ 0.854 µM), the MIC ([1]; A. baumannii IHMA 1830924, United Kingdom 2018, Non-MDR) was 0.5 µg/mL (≈ 0.854 µM) and the MIC ([1]; A. baumannii IHMA 1849819, Kuwait 2018, MDR) was 4 µg/mL (≈ 6.83 µM). The MIC ([1]; A. baumannii IHMA 1849829, Kuwait 2018, Non-MDR) was 0.25 µg/mL (≈ 0.427 µM), the MIC ([1]; A. baumannii IHMA 1857118, Slovenia 2018, Non-MDR) was 0.25 µg/mL (≈ 0.427 µM) and the MIC ([1]; A. baumannii IHMA 1863631, France 2018, Non-MDR) was 0.25 µg/mL (≈ 0.427 µM). The MIC ([1]; A. baumannii IHMA 1870054, United States 2018, Non-MDR) was 0.12 µg/mL (≈ 0.205 µM), the MIC ([1]; A. baumannii IHMA 1884428, Italy 2018, Non-MDR) was 0.25 µg/mL (≈ 0.427 µM) and the MIC ([1]; A. baumannii IHMA 1884990, Germany 2018, Non-MDR) was 0.12 µg/mL (≈ 0.205 µM). It also gave an MIC ([1]; A. baumannii IHMA 1900538, Turkey 2018, Non-MDR) of 0.25 µg/mL (≈ 0.427 µM), an MIC ([1]; A. baumannii IHMA 1913773, Kenya 2018, Non-MDR) of 0.25 µg/mL (≈ 0.427 µM) and an MIC ([1]; A. baumannii IHMA 1926285, Qatar 2018, Non-MDR) of 0.12 µg/mL (≈ 0.205 µM). For the same molecule, the MIC ([1]; A. baumannii IHMA 1926288, Qatar 2018, MDR) was 4 µg/mL (≈ 6.83 µM), the MIC ([1]; A. baumannii IHMA 1957343, Portugal 2019, Non-MDR) was 0.12 µg/mL (≈ 0.205 µM) and the MIC ([1]; A. baumannii IHMA 1963732, Turkey 2019, MDR) was 4 µg/mL (≈ 6.83 µM). For the same molecule, the MIC ([1]; A. baumannii IHMA 1967860, Spain 2019, Non-MDR) was 4 µg/mL (≈ 6.83 µM), the MIC ([1]; A. baumannii IHMA 1971673, Latvia 2019, MDR) was 2 µg/mL (≈ 3.41 µM) and the MIC ([1]; A. baumannii IHMA 1975075, Israel 2019, Non-MDR) was 0.5 µg/mL (≈ 0.854 µM). For the same molecule, the MIC ([1]; A. baumannii IHMA 1977077, Kuwait 2019, Non-MDR) was 0.5 µg/mL (≈ 0.854 µM), the MIC ([1]; A. baumannii IHMA 1983151, Greece 2019, MDR) was 2 µg/mL (≈ 3.41 µM) and the MIC ([1]; A. baumannii IHMA 1984665, Lithuania 2019, MDR) was 4 µg/mL (≈ 6.83 µM). For the same molecule, the MIC ([1]; A. baumannii IHMA 1986678, Turkey 2019, Non-MDR) was 0.5 µg/mL (≈ 0.854 µM), the MIC ([1]; A. baumannii IHMA 1986738, Turkey 2019, MDR) was 4 µg/mL (≈ 6.83 µM) and the MIC ([1]; A. baumannii IHMA 1987162, Croatia 2019, MDR) was 2 µg/mL (≈ 3.41 µM). The MIC ([1]; A. baumannii IHMA 1993615, Turkey 2019, MDR) was 0.5 µg/mL (≈ 0.854 µM), the MIC ([1]; A. baumannii IHMA 1994284, Italy 2019, MDR) was 1 µg/mL (≈ 1.71 µM) and the MIC ([1]; A. baumannii IHMA 1995161, Czech Republic 2019, Non-MDR) was 0.12 µg/mL (≈ 0.205 µM). The MIC ([1]; A. baumannii IHMA 1997936, Morocco 2019, Non-MDR) was 0.25 µg/mL (≈ 0.427 µM), the MIC ([1]; A. baumannii IHMA 1999178, Belgium 2019, Non-MDR) was 0.25 µg/mL (≈ 0.427 µM) and the MIC ([1]; A. baumannii IHMA 2003279, Turkey 2019, MDR) was 2 µg/mL (≈ 3.41 µM). The MIC ([1]; A. baumannii IHMA 2014367, Jordan 2019, Non-MDR) was 0.12 µg/mL (≈ 0.205 µM), the MIC ([1]; A. baumannii IHMA 2014931, South Africa 2019, Non-MDR) was 0.25 µg/mL (≈ 0.427 µM) and the MIC ([1]; A. baumannii IHMA 2019315, Romania 2019, Non-MDR) was 0.12 µg/mL (≈ 0.205 µM). For the same molecule, the MIC ([1]; A. baumannii IHMA 2020360, Croatia 2019, MDR) was 4 µg/mL (≈ 6.83 µM), the MIC ([1]; A. baumannii IHMA 2031511, Greece 2019, Non-MDR) was 0.12 µg/mL (≈ 0.205 µM) and the MIC ([1]; A. baumannii IHMA 2031524, Greece 2019, MDR) was 1 µg/mL (≈ 1.71 µM). For the same molecule, the MIC ([1]; A. baumannii IHMA 2034657, Tunisia 2019, Non-MDR) was 0.25 µg/mL (≈ 0.427 µM), the MIC ([1]; A. baumannii IHMA 2035089, Serbia 2019, MDR) was 4 µg/mL (≈ 6.83 µM) and the MIC ([1]; A. baumannii IHMA 2035134, Serbia 2019, Non-MDR) was 0.12 µg/mL (≈ 0.205 µM). It also gave an MIC ([1]; A. baumannii IHMA 2038976, Hungary 2019, MDR) of 2 µg/mL (≈ 3.41 µM), an MIC ([1]; A. baumannii IHMA 2051503, Serbia 2019, MDR) of 2 µg/mL (≈ 3.41 µM) and an MIC ([1]; A. baumannii IHMA 2058329, Slovenia 2019, Non-MDR) of 0.25 µg/mL (≈ 0.427 µM). For the same molecule, the MIC ([1]; A. baumannii IHMA 2065587, France 2019, Non-MDR) was 0.25 µg/mL (≈ 0.427 µM) and the MIC ([1]; A. baumannii IHMA 2099294, United Kingdom 2019, Non-MDR) was 0.5 µg/mL (≈ 0.854 µM).

— paper PMC10041525, “New Dual Inhibitors of Bacterial Topoisomerases with Broad-Spectrum Antibacterial Activity and In Vivo Efficacy against Vancomycin-Intermediate Staphylococcus aureus” (Journal of Medicinal Chemistry, 2023)
